pIC50: −log10 of the molar value.
Tested on: 287954-098-R-J1 tumor spheroid viability
Test: Anticancer human tumor 287954-098-R-J1 patient-derived Ewing sarcoma cell line growth inhibition
Details: spheroids with HUVEC and MSC; for pIC50: curve of first compound; for viability, T/C: stronger effect = lower value
Summary of the method: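 Single agents and combinations were tested on spheroids built from tumor cells plus HUVEC and hMSC, at half-log dilutions starting at or near clinical Cmax, else 10 microM; final DMSO 0.25% (v/v).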
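Also: spheroids exposed to compound for 7 days before viability readout.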
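For viability, T/C in this document: luminescent signal taken as surrogate of viable cell content; 100% = DMSO vehicle control viability and lower means growth inhibition.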

## Cc1cc(C)c(CNC(=O)c2cc(-c3ccc(CN4CCOCC4)cc3)cc3c2cnn3C2CCCC2)c(=O)[nH]1 + COc1cc2c(cc1O)CCNC21CSC2c3c(OC(C)=O)c(C)c4c(c3C(COC1=O)N1C(O)C3Cc5cc(C)c(OC)c(O)c5C(C21)N3C)OCO4
Second compound 30 pM
  pIC50: < 5.00
Second compound 94.9 pM
  pIC50: < 5.00
Second compound 0.0003 µM
  pIC50: < 5.00
Second compound 0.000949 µM
  pIC50: > 7.50
Second compound 0.003 µM
  pIC50: > 7.50
Second compound 30 pM, first compound 0.0316 µM
  viability, T/C: 106%
Second compound 30 pM, first compound 0.1 µM
  viability, T/C: 108%
Second compound 30 pM, first compound 0.316 µM
  viability, T/C: 106%
Second compound 30 pM, first compound 1 µM
  viability, T/C: 107%
Second compound 30 pM, first compound 3.16 µM
  viability, T/C: 117%
Second compound 30 pM, first compound 10 µM
  viability, T/C: 116%
Second compound 94.9 pM, first compound 0.0316 µM
  viability, T/C: 106%
Second compound 94.9 pM, first compound 0.1 µM
  viability, T/C: 105%
Second compound 94.9 pM, first compound 0.316 µM
  viability, T/C: 105%
Second compound 94.9 pM, first compound 1 µM
  viability, T/C: 109%
Second compound 94.9 pM, first compound 3.16 µM
  viability, T/C: 108%
Second compound 94.9 pM, first compound 10 µM
  viability, T/C: 117%
Second compound 0.0003 µM, first compound 0.0316 µM
  viability, T/C: 96.7%
Second compound 0.0003 µM, first compound 0.1 µM
  viability, T/C: 109%
Second compound 0.0003 µM, first compound 0.316 µM
  viability, T/C: 108%
Second compound 0.0003 µM, first compound 1 µM
  viability, T/C: 113%
Second compound 0.0003 µM, first compound 3.16 µM
  viability, T/C: 103%
Second compound 0.0003 µM, first compound 10 µM
  viability, T/C: 102%
Second compound 0.000949 µM, first compound 0.0316 µM
  viability, T/C: 0.27%
Second compound 0.000949 µM, first compound 0.1 µM
  viability, T/C: 0.28%
Second compound 0.000949 µM, first compound 0.316 µM
  viability, T/C: 0.23%
Second compound 0.000949 µM, first compound 1 µM
  viability, T/C: 0.2%
Second compound 0.000949 µM, first compound 3.16 µM
  viability, T/C: 0.18%
Second compound 0.000949 µM, first compound 10 µM
  viability, T/C: 0.25%
Second compound 0.003 µM, first compound 0.0316 µM
  viability, T/C: 0.2%
Second compound 0.003 µM, first compound 0.1 µM
  viability, T/C: 0.23%
Second compound 0.003 µM, first compound 0.316 µM
  viability, T/C: 0.15%
Second compound 0.003 µM, first compound 1 µM
  viability, T/C: 0.12%
Second compound 0.003 µM, first compound 3.16 µM
  viability, T/C: 0.12%
Second compound 0.003 µM, first compound 10 µM
  viability, T/C: 0.22%

## [2H]c1nc(C)nc([2H])c1-c1cc(NC[C@@H](C)c2cccc3c(C(=O)NC)ccnc23)ncn1 + Cn1nnc2c(C(N)=O)ncn2c1=O
Second compound 1 µM
  pIC50: < 5.00
Second compound 3.16 µM
  pIC50: < 5.00
Second compound 10 µM
  pIC50: < 5.00
Second compound 31.6 µM
  pIC50: < 5.00
Second compound 100 µM
  pIC50: < 5.00
Second compound 1 µM, first compound 0.0316 µM
  viability, T/C: 104%
Second compound 1 µM, first compound 0.1 µM
  viability, T/C: 103%
Second compound 1 µM, first compound 0.316 µM
  viability, T/C: 106%
Second compound 1 µM, first compound 1 µM
  viability, T/C: 97.6%
Second compound 1 µM, first compound 3.16 µM
  viability, T/C: 99.5%
Second compound 1 µM, first compound 10 µM
  viability, T/C: 101%
Second compound 3.16 µM, first compound 0.0316 µM
  viability, T/C: 106%
Second compound 3.16 µM, first compound 0.1 µM
  viability, T/C: 93.9%
Second compound 3.16 µM, first compound 0.316 µM
  viability, T/C: 99.3%
Second compound 3.16 µM, first compound 1 µM
  viability, T/C: 106%
Second compound 3.16 µM, first compound 3.16 µM
  viability, T/C: 107%
Second compound 3.16 µM, first compound 10 µM
  viability, T/C: 99.3%
Second compound 10 µM, first compound 0.0316 µM
  viability, T/C: 101%
Second compound 10 µM, first compound 0.1 µM
  viability, T/C: 100%
Second compound 10 µM, first compound 0.316 µM
  viability, T/C: 99.7%
Second compound 10 µM, first compound 1 µM
  viability, T/C: 104%
Second compound 10 µM, first compound 3.16 µM
  viability, T/C: 103%
Second compound 10 µM, first compound 10 µM
  viability, T/C: 105%
Second compound 31.6 µM, first compound 0.0316 µM
  viability, T/C: 106%
Second compound 31.6 µM, first compound 0.1 µM
  viability, T/C: 103%
Second compound 31.6 µM, first compound 0.316 µM
  viability, T/C: 102%
Second compound 31.6 µM, first compound 1 µM
  viability, T/C: 103%
Second compound 31.6 µM, first compound 3.16 µM
  viability, T/C: 98.8%
Second compound 31.6 µM, first compound 10 µM
  viability, T/C: 106%
Second compound 100 µM, first compound 0.0316 µM
  viability, T/C: 99.7%
Second compound 100 µM, first compound 0.1 µM
  viability, T/C: 103%
Second compound 100 µM, first compound 0.316 µM
  viability, T/C: 97.7%
Second compound 100 µM, first compound 1 µM
  viability, T/C: 98.2%
Second compound 100 µM, first compound 3.16 µM
  viability, T/C: 97.6%
Second compound 100 µM, first compound 10 µM
  viability, T/C: 94.4%

— PubChem BioAssay AID1845194 (Molecular Pharmacology Branch, DTP, NCI, 2023)
